Measured values as given in US20240218022A1, “ANTI-VISTA MACROCYCLIC PEPTIDES AND COMPOSITIONS” (BRISTOL-MYERS SQUIBB COMPANY, priority 2022, published 2024).
pIC50: −log10 of the molar value. Like-named read-outs stand apart in the source and are kept apart here. Positions of bridges follow the written chain, without caps; N, C: chain ends. Non-standard residues stand in square brackets, D forms with d. Residues, ends and D or L forms follow the SMILES beside them. ξ: configuration not given here. *: point of attachment. Phe(2,4-F2) = N[C@@H](Cc1ccc(F)cc1F)C(=O)O; Phe(3-Br) = N[C@@H](Cc1cccc(Br)c1)C(=O)O; 2Nal = N[C@@H](Cc1ccc2ccccc2c1)C(=O)O; Ahp(2) = CCCCC[C@H](N)C(=O)O; NMeNle = CCCC[C@H](NC)C(=O)O; Tle = CC(C)(C)[C@H](N)C(=O)O; NHexGly = CCCCCCNCC(=O)O; Nle = CCCC[C@H](N)C(=O)O; Orn = NCCC[C@H](N)C(=O)O; ξS = NC(CO)C(=O)O; Allyl = C=CC*

Biological target: T1, mouse VISTA (mVISTA) (Mus musculus, UniProt Q9D659)
T1 construct: expressed in transfected cells; host or cells: Human embryonic kidney 293T cells
T1 sequence (Q9D659 33-308): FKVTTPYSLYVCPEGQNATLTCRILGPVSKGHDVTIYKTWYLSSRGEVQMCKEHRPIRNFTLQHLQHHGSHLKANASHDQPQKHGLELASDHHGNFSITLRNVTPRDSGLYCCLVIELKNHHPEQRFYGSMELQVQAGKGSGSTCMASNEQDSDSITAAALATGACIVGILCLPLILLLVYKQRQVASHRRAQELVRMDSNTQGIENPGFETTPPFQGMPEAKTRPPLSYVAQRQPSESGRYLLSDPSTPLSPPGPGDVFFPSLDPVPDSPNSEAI
Assay: Cell-Based Binding High-Content Assay For mVISTA (HC CBA mVISTA)
Details: read-out: HC CBA mVISTA IC50
Outline: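 mVISTA-293T, 4,000 cells/well; cpd ± washout step; biotin-peptide 2 nM final, 30 min RT; SA-Alexa 647 30 min; formaldehyde/Hoechst fix; HCS imaging; 4PL IC50.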

[1] = cell-based binding high-content assay, mVISTA, the 15th table

SMILES | pIC50 | pIC50 [1]
CCCCCCN1CC(=O)N[C@@H](Cc2ccc(O)cc2)C(=O)N[C@@H](CCCCC)C(=O)N[C@@H](CC(N)=O)C(=O)N[C@@H](CCCNC(=N)N)C(=O)N(C)[C@@H](CCCC)C(=O)N[C@@H](CCCCC)C(=O)N2CCC[C@H]2C(=O)N[C@@H](C(C)C)C(=O)N[C@@H](CC(=O)O)C(=O)N[C@H](C(=O)NCC(=O)O)CSCC(=O)N[C@@H](Cc2ccc(F)cc2F)C(=O)N[C@@H](Cc2ccc(F)cc2F)C(=O)N[C@@H](CC(=O)O)C1=O [compound 1216] ({CH2CO}-[Phe(2,4-F2)][Phe(2,4-F2)]D[NHexGly]Y[Ahp(2)]NR[NMeNle][Ahp(2)]PVDCG-OH; thioether N-14) | 7.89 | –
CCCCCCN1CC(=O)N[C@@H](Cc2ccc(O)cc2)C(=O)N[C@@H](CCCCC)C(=O)N[C@@H](CC(N)=O)C(=O)N[C@@H](CCCNC(=N)N)C(=O)N(C)[C@@H](CCCC)C(=O)N[C@@H](CCCCC)C(=O)N2CCC[C@H]2C(=O)N[C@@H](C(C)C)C(=O)N[C@@H](C(C)C)C(=O)N[C@H](C(=O)NCC(=O)O)CSCC(=O)N[C@@H](Cc2ccc(F)cc2F)C(=O)N[C@@H](Cc2ccc(F)cc2F)C(=O)N[C@@H](CC(=O)O)C1=O [compound 1217] ({CH2CO}-[Phe(2,4-F2)][Phe(2,4-F2)]D[NHexGly]Y[Ahp(2)]NR[NMeNle][Ahp(2)]PVVCG-OH; thioether N-14) | 7.79 | –
CCCCCCN1CC(=O)N[C@@H](Cc2ccc(O)cc2)C(=O)N[C@@H](CCCCC)C(=O)N[C@@H](CC(N)=O)C(=O)N[C@@H](CCCNC(=N)N)C(=O)N(C)[C@@H](CCCC)C(=O)N[C@@H](CCCCC)C(=O)N2CCC[C@H]2C(=O)N[C@@H](C(C)C)C(=O)N[C@@H](CC(=O)O)C(=O)N[C@H](C(=O)NC(CO)C(=O)O)CSCC(=O)N[C@@H](Cc2ccc(F)cc2F)C(=O)N[C@@H](Cc2ccc(F)cc2F)C(=O)N[C@@H](CC(=O)O)C1=O (stereo partly drawn) [compound 1218] ({CH2CO}-[Phe(2,4-F2)][Phe(2,4-F2)]D[NHexGly]Y[Ahp(2)]NR[NMeNle][Ahp(2)]PVDC[ξS]-OH; thioether N-14) | 7.63 | –
CCCCCCN1CC(=O)N[C@@H](Cc2ccc(O)cc2)C(=O)N[C@@H](CCCCC)C(=O)N[C@@H](CC(N)=O)C(=O)N[C@@H](CCCNC(=N)N)C(=O)N(C)[C@@H](CCCC)C(=O)N[C@@H](CCCCC)C(=O)N2CCC[C@H]2C(=O)N[C@@H](C(C)C)C(=O)N[C@@H](C(C)C)C(=O)N[C@H](C(=O)NC(CO)C(=O)O)CSCC(=O)N[C@@H](Cc2ccc(F)cc2F)C(=O)N[C@@H](Cc2ccc(F)cc2F)C(=O)N[C@@H](CC(=O)O)C1=O (stereo partly drawn) [compound 1219] ({CH2CO}-[Phe(2,4-F2)][Phe(2,4-F2)]D[NHexGly]Y[Ahp(2)]NR[NMeNle][Ahp(2)]PVVC[ξS]-OH; thioether N-14) | 7.47 | –
CCCCCCN1CC(=O)N[C@@H](Cc2ccc(O)cc2)C(=O)N[C@@H](CCCCC)C(=O)N[C@@H](CC(N)=O)C(=O)N[C@@H](CCCNC(=N)N)C(=O)N(C)[C@@H](CCCC)C(=O)N[C@@H](CCCCC)C(=O)N2CCC[C@H]2C(=O)N[C@@H](C(C)C)C(=O)N[C@@H](C(C)C)C(=O)N[C@H](C(=O)NCC(=O)O)CSCC(=O)N[C@@H](Cc2ccc(F)cc2F)C(=O)N[C@@H](Cc2c[nH]c3ccccc23)C(=O)N[C@@H](CC(=O)O)C1=O [compound 1220] ({CH2CO}-[Phe(2,4-F2)]WD[NHexGly]Y[Ahp(2)]NR[NMeNle][Ahp(2)]PVVCG-OH; thioether N-14) | 7.61 | –
CCCCCCN1CC(=O)N[C@@H](Cc2ccc(O)cc2)C(=O)N[C@@H](CCCCC)C(=O)N[C@@H](CC(N)=O)C(=O)N[C@@H](CCCNC(=N)N)C(=O)N(C)[C@@H](CCCC)C(=O)N[C@@H](CCCCC)C(=O)N2CCC[C@H]2C(=O)N[C@@H](C(C)C)C(=O)N[C@@H](C(C)C)C(=O)N[C@H](C(=O)NC(CO)C(=O)O)CSCC(=O)N[C@@H](Cc2ccc(F)cc2F)C(=O)N[C@@H](Cc2c[nH]c3ccccc23)C(=O)N[C@@H](CC(=O)O)C1=O (stereo partly drawn) [compound 1221] ({CH2CO}-[Phe(2,4-F2)]WD[NHexGly]Y[Ahp(2)]NR[NMeNle][Ahp(2)]PVVC[ξS]-OH; thioether N-14) | 7.69 | –
C=CCOc1ccc(C[C@@H]2NC(=O)CSC[C@@H](C(=O)NCC(N)=O)NC(=O)[C@H](CO)NC(=O)[C@H](C(C)C)NC(=O)[C@@H]3CCCN3C(=O)[C@H](CCCCC)NC(=O)[C@H](CCCC)N(C)C(=O)[C@H](CCCNC(=N)N)NC(=O)[C@H](CC(N)=O)NC(=O)[C@H](CC(C)C)NC(=O)[C@H](Cc3ccc(O)cc3)NC(=O)CN(CCCCCC)C(=O)[C@H](CC(=O)O)NC(=O)[C@H](Cc3ccc(O)cc3)NC2=O)cc1 [compound 1222] ({CH2CO}-Y(Allyl)YD[NHexGly]YLNR[NMeNle][Ahp(2)]PVSCG-NH2; thioether N-14) | 7.66 | –
C=CCOc1ccc(C[C@@H]2NC(=O)CSC[C@@H](C(=O)NCC(N)=O)NC(=O)[C@H](CO)NC(=O)[C@H](C(C)(C)C)NC(=O)[C@@H]3CCCN3C(=O)[C@H](CCCCC)NC(=O)[C@H](CCCC)N(C)C(=O)[C@H](CCCNC(=N)N)NC(=O)[C@H](CC(N)=O)NC(=O)[C@H](CC(C)C)NC(=O)[C@H](Cc3ccc(O)cc3)NC(=O)CN(CCCCCC)C(=O)[C@H](CC(=O)O)NC(=O)[C@H](Cc3ccc(O)cc3)NC2=O)cc1 [compound 1223] ({CH2CO}-Y(Allyl)YD[NHexGly]YLNR[NMeNle][Ahp(2)]P[Tle]SCG-NH2; thioether N-14) | 7.74 | –
CCCCCCN1CC(=O)N[C@@H](Cc2ccc(O)cc2)C(=O)N[C@@H](CC(C)C)C(=O)N[C@@H](CC(N)=O)C(=O)N[C@@H](CCCNC(=N)N)C(=O)N(C)[C@@H](CCCC)C(=O)N[C@@H](CCCCC)C(=O)N2CCC[C@H]2C(=O)N[C@@H](C(C)C)C(=O)N[C@@H](CO)C(=O)N[C@H](C(=O)NCC(N)=O)CSCC(=O)N[C@@H](Cc2cccc(Br)c2)C(=O)N[C@@H](Cc2ccc(O)cc2)C(=O)N[C@@H](CC(=O)O)C1=O [compound 1224] ({CH2CO}-[Phe(3-Br)]YD[NHexGly]YLNR[NMeNle][Ahp(2)]PVSCG-NH2; thioether N-14) | 7.65 | –
CCCCCCN1CC(=O)N[C@@H](Cc2ccc(O)cc2)C(=O)N[C@@H](CC(C)C)C(=O)N[C@@H](CC(N)=O)C(=O)N[C@@H](CCCNC(=N)N)C(=O)N(C)[C@@H](CCCC)C(=O)N[C@@H](CCCCC)C(=O)N2CCC[C@H]2C(=O)N[C@@H](C(C)(C)C)C(=O)N[C@@H](CO)C(=O)N[C@H](C(=O)NCC(N)=O)CSCC(=O)N[C@@H](Cc2cccc(Br)c2)C(=O)N[C@@H](Cc2ccc(O)cc2)C(=O)N[C@@H](CC(=O)O)C1=O [compound 1225] ({CH2CO}-[Phe(3-Br)]YD[NHexGly]YLNR[NMeNle][Ahp(2)]P[Tle]SCG-NH2; thioether N-14) | 7.51 | –
CCCCCCN1CC(=O)N[C@@H](Cc2ccc(O)cc2)C(=O)N[C@@H](CCCC)C(=O)N[C@@H](CC(=O)O)C(=O)N[C@@H](CCCNC(=N)N)C(=O)N[C@@H](CC(C)C)C(=O)N[C@@H](CCCCC)C(=O)N2CCC[C@H]2C(=O)N[C@@H](C(C)C)C(=O)N[C@@H](CC(=O)O)C(=O)N[C@H](C(=O)N[C@@H](CC(=O)O)C(N)=O)CSCC(=O)N[C@@H](Cc2ccc3ccccc3c2)C(=O)N[C@@H](Cc2c[nH]c3ccccc23)C(=O)N[C@@H](CC(=O)O)C1=O [compound 1226] ({CH2CO}-[2Nal]WD[NHexGly]Y[Nle]DRL[Ahp(2)]PVDCD-NH2; thioether N-14) | – | 7.84
CCCCCCN1CC(=O)N[C@@H](Cc2ccc(O)cc2)C(=O)N[C@@H](CCCC)C(=O)N[C@@H](CC(=O)O)C(=O)N[C@@H](CCCN)C(=O)N[C@@H](CC(C)C)C(=O)N[C@@H](CCCCC)C(=O)N2CCC[C@H]2C(=O)N[C@@H](C(C)C)C(=O)N[C@@H](CC(=O)O)C(=O)N[C@H](C(=O)N[C@@H](CC(=O)O)C(N)=O)CSCC(=O)N[C@@H](Cc2ccc3ccccc3c2)C(=O)N[C@@H](Cc2c[nH]c3ccccc23)C(=O)N[C@@H](CC(=O)O)C1=O [compound 1227] ({CH2CO}-[2Nal]WD[NHexGly]Y[Nle]D[Orn]L[Ahp(2)]PVDCD-NH2; thioether N-14) | – | 7.49
CCCCCCN1CC(=O)N[C@@H](Cc2ccc(O)cc2)C(=O)N[C@@H](C(C)C)C(=O)NCC(=O)N[C@@H](CCCNC(=N)N)C(=O)N[C@@H](CC(C)C)C(=O)N[C@@H](CCCCC)C(=O)N2CCC[C@H]2C(=O)N[C@@H](C(C)C)C(=O)N[C@@H](CC(=O)O)C(=O)N[C@H](C(=O)NCC(N)=O)CSCC(=O)N[C@@H](Cc2ccc3ccccc3c2)C(=O)N[C@@H](Cc2c[nH]c3ccccc23)C(=O)N[C@@H](CC(=O)O)C1=O [compound 1228] ({CH2CO}-[2Nal]WD[NHexGly]YVGRL[Ahp(2)]PVDCG-NH2; thioether N-14) | – | 7.57
CCCCCCN1CC(=O)N[C@@H](Cc2ccc(O)cc2)C(=O)N[C@@H](CCCC)C(=O)N[C@@H](CC(N)=O)C(=O)N[C@@H](CCCNC(=N)N)C(=O)N[C@@H](CC(C)C)C(=O)N[C@@H](CCCCC)C(=O)N2CCC[C@H]2C(=O)N[C@@H](C(C)C)C(=O)N[C@@H](CC(=O)O)C(=O)N[C@H](C(=O)NCC(=O)O)CSCC(=O)N[C@@H](Cc2ccc3ccccc3c2)C(=O)N[C@@H](Cc2c[nH]c3ccccc23)C(=O)N[C@@H](CC(=O)O)C1=O [compound 1229] ({CH2CO}-[2Nal]WD[NHexGly]Y[Nle]NRL[Ahp(2)]PVDCG-OH; thioether N-14) | – | 7.88
CCCCCCN1CC(=O)N[C@@H](Cc2ccc(O)cc2)C(=O)N[C@@H](C(C)C)C(=O)NCC(=O)N[C@@H](CCCNC(=N)N)C(=O)N[C@@H](CC(C)C)C(=O)N[C@@H](CCCCC)C(=O)N2CCC[C@H]2C(=O)N[C@@H](C(C)C)C(=O)N[C@@H](CCCNC(=N)N)C(=O)N[C@H](C(=O)NCC(=O)O)CSCC(=O)N[C@@H](Cc2ccc3ccccc3c2)C(=O)N[C@@H](Cc2c[nH]c3ccccc23)C(=O)N[C@@H](CC(=O)O)C1=O [compound 1230] ({CH2CO}-[2Nal]WD[NHexGly]YVGRL[Ahp(2)]PVRCG-OH; thioether N-14) | – | 8.24
